Laboratory results as given in patent US20230210853A1 (Halia Therapeutics, Inc., priority 2020, published 2023).

Target: T1, full-length recombinant human NEK7 (Homo sapiens, UniProt Q8TDX7)
T1 construct: full-length recombinant human NEK7; GST (N); purchased SignalChem N09-10G; host or cells: Sf9 insect cells (baculovirus)
Experiment: NEK7 enzymatic assay ([33P]-ATP, casein substrate)
Type: biochemical
Conditions: Table 2a; recombinant human NEK7, casein substrate
Experimental: In some embodiments, the IC50 of the compounds of Structure (I), (Ia), (Ib), (Ic), (Id), (Ie), or (If) to inhibit NEK7 was determined by the concentration of the compound required to inhibit 50% of the activity of the NEK kinase.
(§1) Casein substrate (from bovine milk, hydrolyzed and partially dephosphorylated mixture of α, β and κ caseins, obtained from Sigma Aldrich, catalogue #C4765, diluted in distilled water to a final concentration of 1 mg/mL) and full-length recombinant human NEK7 (expressed by baculovirus in Sf9 insect cells using a N-terminal GST tag, obtained from SignalChem, catalogue #N09-10G, 0.1 μg/μL) were mixed in assay buffer (20 mM Hepes pH 7.5, 10 mM MgCl2, 1 mM EGTA, 0.02% Brij35, 0.02 mg/ml BSA, 0.1 mM Na3 VO4, 2 mM DTT, 1% DMSO). Compounds of interest (serial 3-fold dilution in DMSO from 10 μM to 0.5 nM) or vehicle (1% DMSO) were dispensed into the kinase reaction mixture by Acoustic technology (Echo550, nanoliter range). After incubation at room temperature for 20 minutes, the kinase reaction was initiated by addition of [^33P]-ATP (specific activity 10 μCi/μl) and the mixture was incubated at room temperature for 2 hours. The reaction was then stopped by spotting the reaction mixture on strips of phosphocellulose P81 paper. Following washing, the radioactivity of the P81 paper was measured and kinase activity data were expressed as the percent remaining kinase activity in test samples compared to vehicle reactions. IC50 values and curve fits were obtained using Prism (GraphPad Software).
as §1, with “μg/L)” for “μg/μL)”, “Na3VO4,” for “Na3 VO4,”, “(Echo550;” for “(Echo550,”

T1 sequence (Q8TDX7 whole entry): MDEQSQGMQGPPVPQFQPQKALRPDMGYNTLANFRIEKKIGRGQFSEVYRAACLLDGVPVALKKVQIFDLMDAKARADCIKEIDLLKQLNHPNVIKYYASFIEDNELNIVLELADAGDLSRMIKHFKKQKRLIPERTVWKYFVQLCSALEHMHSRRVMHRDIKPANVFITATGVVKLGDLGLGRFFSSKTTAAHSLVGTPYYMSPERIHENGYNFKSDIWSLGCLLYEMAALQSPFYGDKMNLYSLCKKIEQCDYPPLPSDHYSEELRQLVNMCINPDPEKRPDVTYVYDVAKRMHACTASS

| IC50 [nM] | SMILES |
| --- | --- |
| 301 to 500 | CC(C)n1nc(-c2ccc(NC(=O)Nc3cc(C(C)(C)C)no3)cc2)c2c(N)ncnc21 [Ia-1, 1-(4-(4-amino-1-isopropyl-1H-pyrazolo[3,4-d]pyrimidin-3-yl)phenyl)-3-(3-(tert-butyl)isoxazol-5-yl)urea] |
| 151 to 300 | CC(C)(C)c1cc(NC(=O)Nc2ccc(-c3nn(C4COC4)c4ncnc(N)c34)cc2)on1 [Ia-2, 1-(4-(4-amino-1-(oxetan-3-yl)-1H-pyrazolo[3,4-d]pyrimidin-3-yl)phenyl)-3-(3-(tert-butyl)isoxazol-5-yl)urea] |
| 151 to 300 | CC(C)(C)c1cc(NC(=O)Nc2ccc(-c3nn(C4COC4)c4ncnc(N)c34)cc2)no1 [Ia-3, 1-(4-(4-amino-1-(oxetan-3-yl)-1H-pyrazolo[3,4-d]pyrimidin-3-yl)phenyl)-3-(5-(tert-butyl)isoxazol-3-yl)urea] |
| 301 to 500 | CC(C)(C)c1cc(NC(=O)Nc2ccc(-c3nn(C4CCOCC4)c4ncnc(N)c34)cc2)on1 [Ia-4, 1-(4-(4-amino-1-(tetrahydro-2H-pyran-4-yl)-1H-pyrazolo[3,4-d]pyrimidin-3-yl)phenyl)-3-(3-(tert-butyl)isoxazol-5-yl)urea] |
| 151 to 300 | CC(C)(C)c1cc(NC(=O)Nc2ccc(-c3nn(C4CCOC4)c4ncnc(N)c34)cc2)on1 (stereo not drawn) [Ia-5, 1-(4-(4-amino-1-(tetrahydrofuran-3-yl)-1H-pyrazolo[3,4-d]pyrimidin-3-yl)phenyl)-3-(3-(tert-butyl)isoxazol-5-yl)urea] |
| 501 to 1500 | CC(C)n1nc(-c2ccc(NC(=O)Nc3cc(C(C)(C)C)no3)c(Cl)c2)c2c(N)ncnc21 [Ia-6] |
| 151 to 300 | CC(C)(C)c1cc(NC(=O)Nc2ccc(-c3nn(C4CCC4)c4ncnc(N)c34)cc2)on1 [Ia-7, 1-(4-(4-amino-1-cyclobutyl-1H-pyrazolo[3,4-d]pyrimidin-3-yl)phenyl)-3-(3-(tert-butyl)isoxazol-5-yl)urea] |
| < 150 | CC(C)(C)c1cc(NC(=O)Nc2ccc(-c3nn(C4CCC4)c4ncnc(N)c34)cc2F)on1 [Ia-8, 1-(4-(4-amino-1-cyclobutyl-1H-pyrazolo[3,4-d]pyrimidin-3-yl)-2-fluorophenyl)-3-(3-(tert-butyl)isoxazol-5-yl)urea] |
| 301 to 500 | CC(C)(O)Cn1nc(-c2ccc(NC(=O)Nc3cc(C(C)(C)C)no3)cc2)c2c(N)ncnc21 [Ia-9, 1-(4-(4-amino-1-(2-hydroxy-2-methylpropyl)-1H-pyrazolo[3,4-d]pyrimidin-3-yl)phenyl)-3-(3-(tert-butyl)isoxazol-5-yl)urea] |
| < 150 | CC(C)(O)Cn1nc(-c2ccc(NC(=O)Nc3cc(C(C)(C)C)no3)c(F)c2)c2c(N)ncnc21 [Ia-10] |
| < 150 | CC(C)n1nc(-c2ccc(NC(=O)Nc3cc(C(C)(C)C)no3)c(F)c2)c2c(N)ncnc21 [Ia-11, 1-(4-(4-amino-1-isopropyl-1H-pyrazolo[3,4-d]pyrimidin-3-yl)-2-fluorophenyl)-3-(3-(tert-butyl)isoxazol-5-yl)urea] |
| < 150 | CC(C)(C)c1cc(NC(=O)Nc2ccc(-c3nn(C4CCC(O)CC4)c4ncnc(N)c34)cc2F)on1 (stereo not drawn) [Ia-15] |
| 501 to 1500 | CC(C)(C)c1cc(NC(=O)Nc2ccc(-c3nn(C4CC(F)(F)C4)c4ncnc(N)c34)cc2F)on1 [Ia-16, 1-(4-(4-amino-1-(3,3-difluorocyclobutyl)-1H-pyrazolo[3,4-d]pyrimidin-3-yl)-2-fluorophenyl)-3-(3-(tert-butyl)isoxazol-5-yl)urea] |
| 301 to 500 | CC(C)(C)c1cc(NC(=O)Nc2ccc(-c3nn(-c4ccncc4)c4ncnc(N)c34)cc2F)on1 [Ia-17, 1-(4-(4-amino-1-(pyridin-4-yl)-1H-pyrazolo[3,4-d]pyrimidin-3-yl)-2-fluorophenyl)-3-(3-(tert-butyl)isoxazol-5-yl)urea] |
| 151 to 300 | CC(C)(C)c1cc(NC(=O)Nc2ccc(-c3nn(C4CCS(=O)(=O)C4)c4ncnc(N)c34)cc2F)on1 (stereo not drawn) [Ia-18, 1-(4-(4-amino-1-(1,1-dioxdotetrahydrothiophen-3-yl)-1H-pyrazolo[3,4-d]pyrimidin-3-yl)-2-fluorophenyl)-3-(3-(tert-butyl)isoxazol-5-yl)urea] |
| 301 to 500 | CC(C)(C)c1cc(NC(=O)Nc2ccc(-c3nn(C4CCCOC4)c4ncnc(N)c34)cc2F)on1 (stereo not drawn) [Ia-19, 1-(4-(4-amino-1-(tetrahydro-2H-pyran-3-yl)-1H-pyrazolo[3,4-d]pyrimidin-3-yl)-2-fluorophenyl)-3-(3-(tert-butyl)isoxazol-5-yl)urea] |
| < 150 | CC(C)(C)c1cc(NC(=O)Nc2ccc(-c3nn(C4CC4)c4ncnc(N)c34)cc2)on1 [Ia-20, 1-(4-(4-amino-1-cyclopropyl-1H-pyrazolo[3,4-d]pyrimidin-3-yl)phenyl)-3-(3-(tert-butyl)isoxazol-5-yl)urea] |
| 151 to 300 | CC(C)(c1cc(NC(=O)Nc2ccc(-c3nn(C4CC4)c4ncnc(N)c34)cc2F)on1)C(F)(F)F [Ia-22, 1-(4-(4-amino-1-cyclopropyl-1H-pyrazolo[3,4-d]pyrimidin-3-yl)-2-fluorophenyl)-3-(3-(1,1,1-trifluoro-2-methylpropan-2-yl)isoxazol-5-yl)urea] |

Same assay, conditions: comparative compounds of Structure (II)

| IC50 [nM] | SMILES |
| --- | --- |
| 301 to 500 | CC(C)n1nc(-c2ccc3c(c2F)CCN3C(=O)Cc2cccc(C(F)(F)F)c2)c2c(N)ncnc21 [II-1, l-(5-(4-amino-1-isopropyl-1H-pyrazolo[3,4-d]pyrimidin-3-yl)-4-fluoroindolin-1-yl)-2-(3-(trifluoromethyl)phenyl)ethan-1-one] |
| 151 to 300 | CC(C)n1nc(-c2ccc3c(c2F)CCN3C(=O)Cc2ccc(F)c(C(F)(F)F)c2)c2c(N)ncnc21 [II-2, 1-(5-(4-amino-1-isopropyl-1H-pyrazol[3,4-d]pyrimidin-3-yl)-4-fluoroindolin-1-yl)-2-(4-fluoro-3-(trifluoromethyl)phenyl)ethan-1-one] |
| 151 to 300 | Nc1ncnc2c1c(-c1ccc3c(c1F)CCN3C(=O)Cc1cccc(C(F)(F)F)c1)nn2C1CC1 [II-4, 1-(5-(4-amino-1-cyclopropyl-1H-pyrazolo[3,4-d]pyrimidin-3-yl)-4-fluoroindolin-1-yl)-2-(3-(trifluoromethyl)phenyl)ethan-1-one] |
| 301 to 500 | Cc1ccc(CC(=O)N2CCc3c2ccc(-c2nn(C(C)C)c4ncnc(N)c24)c3F)cc1C(F)(F)F [II-5, 1-(5-(4-amino01-isopropyl-1H-pyrazolo[3,4-d]pyrimidin-3-yl)-4-fluoroindolin-1-yl)-2-(4-methyl-3-(trifluoromethyl)phenyl)ethan-1-one] |
| > 1500 | Cc1c(CC(=O)N2CCc3c2ccc(-c2nn(C(C)C)c4ncnc(N)c24)c3F)cccc1C(F)(F)F [II-6, 1-(5-(4-amino-1-isopropyl-1H-pyrazolo[3,4-d]pyrimidin-3-yl)-4-fluoroindolin-l-yl)-2-(2-methyl-3-(trifluoromethyl)phenyl)ethan-1-one] |
| 151 to 300 | CC(C)n1nc(-c2ccc3c(c2F)CCN3C(=O)Cc2cccc(OC(F)(F)F)c2)c2c(N)ncnc21 [II-7, 1-(5-(4-amino-1-isopropyl-1H-pyrazolo[3,4-d]pyrimidin-3-yl)-4-fluoroindolin-1-yl)-2-(3-(trifluoromethoxy)phenyl)ethan-1-one] |
| 501 to 1500 | CC(C)n1nc(-c2ccc3c(c2Cl)CCN3C(=O)Cc2ccc(F)c(C(F)(F)F)c2)c2c(N)ncnc21 [II-8, 1-(5-(4-amino-1-isopropyl-1H-pyrazolo[3,4-d]pyrimidin-3-yl)-4-chloroindolin-1-yl)-2-(4-fluoro-3-(trifluoromethyl)phenyl)ethan-1-one] |
| 501 to 1500 | Nc1ncnc2c1c(-c1ccc3c(c1F)CCN3C(=O)Cc1ccc(F)c(C(F)(F)F)c1)nn2C1COC1 [II-9, 1-(5-(4-amino-1-(oxetan-3-yl)-1H-pyrazolo[3,4-d]pyrimidin-3-yl)-4-fluoroindolin-1-yl)-2-(4-fluoro-3-(trifluoromethyl)phenyl)ethan-1-one] |
| 151 to 300 | Nc1ncnc2c1c(-c1ccc3c(c1Cl)CCN3C(=O)Cc1ccc(F)c(C(F)(F)F)c1)nn2C1COC1 [II-10, 1-(5-(4-amino-1-(oxetan-3-yl)-1H-pyrazolo[3,4-d]pyrimidin-3-yl)-4-chloroindolin-1-yl)-2-(4-fluoro-3-(trifluoromethyl)phenyl)ethan-1-one] |
